Assays:
Type in all cases: binding, mouse (Balb/c)
Details in all cases: for Cross-reactivity: (triasulfurone conc. for 50% inhibition/analog conc. for 50% inhibition) × 100
MAb 4134-40-1 = assay: competitive ELISA, triasulfurone and analogs with MAb 4134-40-1 (Table 1)
Description: (§1) As defined within the context of this invention, the percentage of cross-reactivity is represented by the following equation: [triasulfurone concentration for 50% inhibition (I50)/concentration of the triasulfurone analogs for 50% inhibition (I50)]×100.
(§2) The I50 value can be determined, for example, by means of a competitive ELISA assay (see Example 8). In that case the I50 value corresponds, for example, to the antigen concentration that leads to a 50% inhibition of the binding of the antibody to the carrier-bound antigen.
(§3) The detection of triasulfurone is effected by means of a two-step competitive ELISA test.
(§4) BSA-conjugated hapten, prepared in accordance with Example 1.3.1 or 1.3.2, in a 50mM sodium carbonate buffer (pH 9.6) (200 ng of BSA-conjugated hapten/100 μl of sodium carbonate buffer) is first of all adsorbed on microtitre plates (for example Dynatech, type M 129A) and incubated overnight at a temperature of 4° C. The plates are then washed five times with PBS buffer enriched with 0.1% (v/v) polysorbate 20 (Tween 20) (PBS Tween).
(§5) The remaining free binding sites of the solid carder material are then blocked by the addition of PBS-BSA in the form of a 1% (w/v) solution. After incubation for two hours at 22° C. the plates are washed again with PBS Tween (0.1%).
(§6) 50 μl of the supernatant of the previously cloned hybridoma cells (in a dilution of 1:2000 or 1:4000) or 50 μl of the previously purified monoclonal antibodies (40-120 ng/ml) are incubated a) with 950 μl of a standard solution containing an increasing amount of triasulfurone or of triasulfurone analogs, b) with triasulfurone-containing water samples or c) with triasulfurone-containing soil extracts. [All dilutions are carried out in PBS Tween (0.1%)].
(§7) After an incubation period of 1 hour at room temperature (22° C.), 200 μl of the antigen/antibody mixture are added to each well in the microtitre plate and the whole batch is incubated for a further one hour. The wells are then washed five times with PBS Tween (0.1%) and charged with 100 μl/well of goat anti-mouse IgG antibody that is conjugated to alkaline phosphatase (dilution 1:1500), and incubated for a period of 1.5 hours.
(§8) After washing again, 150 μl/well of the substrate p-nitrophenyl phosphate dissolved in 1 mg/ml of diethanolamine buffer ([…], pH 9.8, enriched with 0.5 mM MgCl2 ×6H2 O) are added to the wells.
(§9) The intensity of the colour reaction that has occurred is determined at a wavelength of 405 nm. […] All the samples are determined in triplicate.
(§10) In order to determine the amount of triasulfurone present in a sample, first of all a calibration curve is produced (FIG. 1), B/Bo×100 being plotted against the concentration of inhibitor. (Bo represents the absorption capacity measured without the addition of a triasulfurone inhibitor to the antibody, and B is the absorption capacity when triasulfurone inhibitors at various concentrations are added). The I50 value indicates the concentration of the antigen at which the binding of antibody to the solid phase is inhibited by 50%. The I50 value is determined using an ENZFITTER (Leatherbarrow, Elsevier-Biosoft) curve-calculation program based on a four-parameter logistical curve (Raab GM, 1983) and specially adapted to the prevailing conditions. The quantitative determination of triasulfurone in soil or water samples within the context of ELISA is also carried out using the ENZFITTER program, the adaptation of the curve being based on standards that run on any microtitre plate.

MAb 4149-1-1 = assay: competitive ELISA, triasulfurone and analogs with MAb 4149-1-1 (Table 1)
Description: as §1, §2, §3, §4, §5, §6, §7, §8, §9, §10

MAb 4147-19-4 = assay: competitive ELISA, triasulfurone and analogs with MAb 4147-19-4 (Table 1)
Description: as §1, §2, §3, §4, §5, §6, §7, §8, §9, §10

Row | Compound | I50 (inhibitor concentration that reduces the ELISA signal by 50% in comparison to the control) (MAb 4134-40-1) | Cross-reactivity (MAb 4134-40-1) | I50 (inhibitor concentration that reduces the ELISA signal by 50% in comparison to the control) (MAb 4149-1-1) | Cross-reactivity (MAb 4149-1-1) | I50 (inhibitor concentration that reduces the ELISA signal by 50% in comparison to the control) (MAb 4147-19-4) | Cross-reactivity (MAb 4147-19-4)
1 | COc1cc(OC)nc(NC(=O)NS(=O)(=O)c2ncccc2C(=O)N(C)C)n1 [P, nicosulfurone-methyl] | > 1000 ng/mL | < 0.7% | > 1000 ng/mL | < 0.01% | > 1000 ng/mL | < 0.01%
2 | COC(=O)c1ccccc1S(=O)(=O)NC(=O)N(C)c1nc(C)nc(OC)n1 [K, tribenurone-methyl] | > 1000 ng/mL | < 0.7% | > 1000 ng/mL | < 0.01% | > 1000 ng/mL | < 0.01%
3 | NS(=O)(=O)c1cc(O)ccc1OCCCl [E] | > 1000 ng/mL | < 0.7% | > 1000 ng/mL | < 0.01% | > 1000 ng/mL | < 0.01%
4 | CCCOC(=O)NS(=O)(=O)c1ccccc1OCCCl [R] | 2.1 ng/mL | 342.9% | 0.02 ng/mL | 250.00% | 1.9 ng/mL | 4.7%
5 | NC(=O)NS(=O)(=O)c1ccccc1OCCCl [S] | 6.0 ng/mL | 120.0% | 0.02 ng/mL | 250.00% | 2.6 ng/mL | 3.5%
6 | NS(=O)(=O)c1ccccc1OCCCl [C] | > 1000 ng/mL | < 0.7% | 1000 ng/mL | < 0.01% | > 1000 ng/mL | < 0.01%
7 | COc1nc(C)nc(NC(=O)NS(=O)(=O)c2ccc(O)cc2OCCCl)n1 [B] | > 1000 ng/mL | < 0.7% | 0.04 ng/mL | 125.0% | 85 ng/mL | 0.1%
8 | NS(=O)(=O)c1ccccc1OCCO [D] | > 1000 ng/mL | < 0.7% | > 1000 ng/mL | < 0.01% | > 1000 ng/mL | < 0.01%
9 | COC(=O)c1ccccc1S(=O)(=O)NC(=O)Nc1nc(C)nc(OC)n1 [O, methsulfurone-methyl] | > 1000 ng/mL | < 0.7% | 600 ng/mL | < 0.01% | 81.5 ng/mL | 0.1%

Reference: patent US5359135A, “Triasulfurone compounds” (priority 1990, dated 1994)
